Here are results for 23 molecules from ChEMBL document CHEMBL1150752, “Inhibition of cow's milk xanthine oxidase by flavonoids” (J Nat Prod, 1988).

The term inhibition denotes the percentage by which the read-out fell short of the control. Lower therefore signals a weak effect. By IC50 is commonly meant the concentration at which inhibition is half-maximal. A higher IC50 goes with a need for much substance.

Assay [1] has as its target T1, Xanthine dehydrogenase/oxidase (Bos taurus, UniProt P80457). The assay is described as follows: Inhibition of cow milk xanthine oxidase at 50 ug/mL. The conditions noted are these: cattle.
Assay [2] concerns the target T1, Xanthine dehydrogenase/oxidase. Kind of assay: Inhibition of cow milk xanthine oxidase.

T1 sequence (P80457 whole entry): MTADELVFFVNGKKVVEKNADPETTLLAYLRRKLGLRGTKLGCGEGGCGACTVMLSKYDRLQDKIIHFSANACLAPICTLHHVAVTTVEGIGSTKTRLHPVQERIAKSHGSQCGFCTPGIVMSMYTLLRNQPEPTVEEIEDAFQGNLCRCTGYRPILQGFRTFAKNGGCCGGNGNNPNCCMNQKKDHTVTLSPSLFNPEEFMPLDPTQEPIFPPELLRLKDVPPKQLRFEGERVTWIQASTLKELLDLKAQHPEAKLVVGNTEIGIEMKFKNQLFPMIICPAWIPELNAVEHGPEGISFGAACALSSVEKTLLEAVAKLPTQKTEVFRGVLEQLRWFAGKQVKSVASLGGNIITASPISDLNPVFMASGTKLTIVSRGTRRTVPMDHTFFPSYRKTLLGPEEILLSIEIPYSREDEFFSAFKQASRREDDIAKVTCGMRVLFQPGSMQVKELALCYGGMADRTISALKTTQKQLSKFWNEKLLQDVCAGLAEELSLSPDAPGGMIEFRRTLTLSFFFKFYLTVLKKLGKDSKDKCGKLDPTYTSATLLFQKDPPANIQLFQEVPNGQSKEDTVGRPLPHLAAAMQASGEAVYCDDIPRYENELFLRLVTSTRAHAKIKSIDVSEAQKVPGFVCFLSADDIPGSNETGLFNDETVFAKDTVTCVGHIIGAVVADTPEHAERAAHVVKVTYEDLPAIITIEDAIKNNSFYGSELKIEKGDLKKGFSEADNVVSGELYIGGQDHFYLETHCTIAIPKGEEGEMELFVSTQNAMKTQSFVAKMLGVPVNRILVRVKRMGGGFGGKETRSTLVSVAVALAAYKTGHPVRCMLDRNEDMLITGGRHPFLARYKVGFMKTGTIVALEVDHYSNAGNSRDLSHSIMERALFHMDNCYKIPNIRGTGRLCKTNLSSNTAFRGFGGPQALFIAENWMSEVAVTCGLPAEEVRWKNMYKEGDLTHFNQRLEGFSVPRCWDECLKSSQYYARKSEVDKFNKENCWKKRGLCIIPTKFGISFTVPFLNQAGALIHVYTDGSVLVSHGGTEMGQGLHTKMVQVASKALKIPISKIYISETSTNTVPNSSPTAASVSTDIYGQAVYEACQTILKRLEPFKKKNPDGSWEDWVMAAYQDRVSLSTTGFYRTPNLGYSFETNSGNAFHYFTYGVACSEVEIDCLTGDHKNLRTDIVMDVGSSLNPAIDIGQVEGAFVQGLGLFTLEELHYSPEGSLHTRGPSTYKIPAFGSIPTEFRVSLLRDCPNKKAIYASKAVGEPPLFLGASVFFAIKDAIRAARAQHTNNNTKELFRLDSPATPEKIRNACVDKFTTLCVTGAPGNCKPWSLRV

Molecule `COc1c(-c2ccc(O[C@@H]3O[C@H](CO)[C@@H](O)[C@H](O)[C@H]3O)c(O)c2)oc2cc(O)cc(O)c2c1=O` gave an inhibition at 50 µg/mL in assay [1] of 69.1%. Besides, half-maximal inhibition in assay [2] (IC50) was put at 35.6 µM.
`O=c1cc(-c2ccc(O)c(O)c2)oc2cc(O[C@@H]3O[C@H](CO)[C@@H](O)[C@H](O)[C@H]3O)cc(O)c12` (single isomer, unassigned) [GALUTEOLIN] gave an inhibition at 50 µg/mL in assay [1] of 67.2%. Half-maximal inhibition in assay [2] (IC50) was put at 75.9 µM.
On the same counts, the results for `COc1c(O)cc2oc(-c3ccc(O)cc3)c(OC)c(=O)c2c1O` [3,6-DIMETHOXY KAEMPFEROL] are 95% and 0.03 µM.
Consider `COc1c(-c2ccc(O)c(O)c2)oc2cc(O)cc(O)c2c1=O` [3-O-METHYLQUERCETIN], for which, in assay [1], the inhibition at 50 µg/mL is 98.5%. The IC50 in assay [2] worked out at 31.6 µM.
`COc1ccc(-c2cc(=O)c3c(O)cc(O)cc3o2)cc1` [ACACETIN] returned an inhibition at 50 µg/mL in assay [1] of 55.7%. Further, it took 14.1 µM to reach half-maximal inhibition in assay [2] (IC50).
With `O=c1cc(-c2ccc(O)c(-c3c(O)cc(O)c4c(=O)cc(-c5ccc(O)cc5)oc34)c2)oc2cc(O)cc(O)c12` [AMENTOFLAVONE], at 50 µg/mL the inhibition in assay [1] was 100%. Moreover, half-maximal inhibition in assay [2] (IC50) was put at 35.3 µM.
On the same counts, the results for `O=c1cc(-c2ccccc2)oc2cc(O)c(O)c(O)c12` [BAICALEIN] are 85.5% and 3.3 µM.
For the molecule `O=C1c2c(O)cc(O)cc2O[C@H](c2ccc(O)cc2)[C@H]1O` [DIHYDROKAEMPFEROL], 50 µg/mL produced 66.9% inhibition in assay [1]. Also, in assay [2], the IC50 turned out to be 93.8 µM.
In turn, `O=C1CC(c2ccc(O)c(O)c2)Oc2c1c(O)cc(O)c2[C@@H]1C(=O)c2c(O)cc(O)cc2O[C@H]1c1ccc(O)cc1` (stereo not given in full) [FUKUGETIN] displayed an inhibition at 50 µg/mL in assay [1] of 97.2%. Moreover, the IC50 in assay [2] came to 22.3 µM.
Taken in the same sequence, the figures for `COc1cc(-c2oc3cc(O)cc(O)c3c(=O)c2OS(=O)(=O)O)ccc1O` [PERSICARIN] were 90.3% and 34.6 µM.
`COc1cc(O)c2c(c1)O[C@H](c1ccc(O)cc1)CC2=O` [SAKURANETIN] showed an inhibition at 50 µg/mL in assay [1] of 0%.
In assay [1], `COc1ccc(-c2cc(=O)c3c(O)cc(O)c(-c4cc(-c5cc(=O)c6c(O)cc(OC)cc6o5)ccc4OC)c3o2)cc1` [SCIADOPITISIN] returned an inhibition at 50 µg/mL of 0%.
Regarding `O=c1cc(-c2ccc(O)cc2)oc2cc(O)c(O)c(O)c12` [SCUTELLAREIN], the inhibition at 50 µg/mL in assay [1] was found to be 67.3%. Further, the IC50 in assay [2] amounted to 12.6 µM.
As to `O=C(O)[C@H]1O[C@@H](Oc2cc3oc(-c4ccc(O)cc4)cc(=O)c3c(O)c2O)[C@H](O)[C@@H](O)[C@@H]1O` [SCUTELLARIN], in assay [1], the inhibition at 50 µg/mL is 16.6%.
Still for that read-out and setting: under `O=c1c(-c2ccc(O[C@@H]3O[C@H](CO)[C@@H](O)[C@H](O)[C@H]3O)cc2)coc2cc(O)cc(O)c12` [SOPHORICOSIDE] stands 15.3%; under `COc1cc2oc(-c3ccc(O)cc3)cc(=O)c2c(O)c1[C@@H]1O[C@H](CO)[C@@H](O)[C@H](O)[C@H]1O` [SWERTISIN], 24.9%.
Molecule `COc1c(O[C@@H]2O[C@H](CO)[C@@H](O)[C@H](O)[C@H]2O)cc2occ(-c3ccc(O)cc3)c(=O)c2c1O` [TECTORIDIN] showed an inhibition at 50 µg/mL in assay [1] of 0%.
Same read-out and setting: as for `COc1c(O)cc2occ(-c3ccc(O)cc3)c(=O)c2c1O` [TECTORIGENIN], the figure is 0%; as for `COc1ccc(-c2cc(=O)c3c(O)cc(O[C@@H]4O[C@H](CO)[C@@H](O)[C@H](O)[C@H]4O)cc3o2)cc1` [TILIANINE], 0%.
In assay [1], `COc1c(-c2ccc(O)c(O)c2)oc2cc(O[C@@H]3O[C@H](CO)[C@@H](O)[C@H](O)[C@H]3O)cc(O)c2c1=O` [TRANSILIN] displayed an inhibition at 50 µg/mL of 39.5%.
For the molecule `O=c1c(O[C@@H]2O[C@H](CO)[C@H](O)[C@H](O)[C@H]2O)c(-c2ccc(O)cc2)oc2cc(O)cc(O)c12` [TRIFOLIN], at 50 µg/mL the inhibition in assay [1] was 16.1%.
In turn, `O=c1cc(-c2ccc(O)cc2)oc2c([C@@H]3O[C@H](CO)[C@@H](O)[C@H](O)[C@H]3O)c(O)cc(O)c12` [VITEXIN] had an inhibition at 50 µg/mL in assay [1] of 0%.
In assay [1], `COc1c(O)cc(O)c2c(=O)cc(-c3ccccc3)oc12` [WOGONIN] came in with an inhibition at 50 µg/mL of 50.2%. Moreover, the IC50 in assay [2] was 176 µM.
